# Ends that are not written are not given here.
# Tests used:
# [1] = tested on: C57BL/6NCrj mice; experiment: light-dark exploration test, SB-334867 (Example 3); assay type: in vivo
# Method: Specifically, two types of solutions, 0.50 nmol/μl and 1.50 nmol/μl, were prepared. The artificial cerebrospinal fluid (aCSF) was used alone as a negative control.
# The position of the inserted cannula was also confirmed in the same manner.
# The following three subject groups were tested.
# The test apparatus consisted of a dark compartment (depth 10 cm×width 15 cm length 20 cm) and a light compartment (depth 20 cm×width 15 cm×length 20 cm). Specifically, the dark compartment was made of a black plastic material with a lid on top whereas the light compartment was made of a white plastic material with an open top. Both of the light and dark compartments were connected via a black plastic tunnel (depth 7 cm×width 10 cm×length 4.5 cm) that allows access to both compartments.
# At the end of the test, the total time spent in the light compartment was calculated for each test animal, and the results were expressed as “average time+SEM” for each test subject (see FIG. 4). […]
# [2] = molecular target: T1, orexin receptor-2 (OX2R) (Homo sapiens, UniProt O43614); conditions: orexin-A compared with orexin-B; cited from earlier work
# T1 sequence (O43614 1-444): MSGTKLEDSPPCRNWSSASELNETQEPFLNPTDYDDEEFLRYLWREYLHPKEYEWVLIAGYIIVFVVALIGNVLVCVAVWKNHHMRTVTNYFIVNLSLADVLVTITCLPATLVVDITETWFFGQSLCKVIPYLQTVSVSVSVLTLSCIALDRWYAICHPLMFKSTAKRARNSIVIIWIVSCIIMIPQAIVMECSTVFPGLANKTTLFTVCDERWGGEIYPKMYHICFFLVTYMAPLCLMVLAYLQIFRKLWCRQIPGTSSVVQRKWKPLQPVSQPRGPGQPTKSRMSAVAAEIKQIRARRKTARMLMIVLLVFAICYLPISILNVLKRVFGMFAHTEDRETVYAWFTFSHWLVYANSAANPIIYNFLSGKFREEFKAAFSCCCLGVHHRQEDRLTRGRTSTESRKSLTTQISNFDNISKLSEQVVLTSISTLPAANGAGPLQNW
# [3] = tested on: C57BL/6NCrj mice; experiment: light-dark exploration test, orexin-A (Example 1); assay type: in vivo; conditions: for time spent in the light compartment, difference from the aCSF administration group: intracerebroventricular, mice
# Method: C57BL/6NCrj mice (male, 25 to 30 g, Charles River, Japan) were used for the light-dark exploration test. Ten mice were bred per cage.
# (§1) Orexin-A (Peptide Institute Inc., Osaka, Japan) was dissolved in an artificial cerebrospinal fluid (aCSF: glucose 10 mM, KCl 2 mM, NaCl 115 mM, CaCl2 2.5 mM, MgSO4 1.2 mM, NaHCO3 25 mM, KH2PO4 2.2 mM; pH 7. 4) to prepare solutions at various concentrations (0.1 nmol/μl, 0.3 nmol/μl, 1.0 nmol/μl, 3.0 nmol/μl). The artificial cerebrospinal fluid was used alone as a negative control.
# (§2) A stainless-steel injection needle was used that can be inserted into the lateral ventricle to a point 0.5 mm deeper than the tip of the guide cannula for intracerebroventricularly administering an orexin-A solution. The amounts of orexin-A solution were 2 μl and 5 μl for mice and rats, respectively. A microsyringe (705N 50 μl, Hamilton, Nevada, USA) was connected to a reflux pump (CMA100, BAS Inc., Tokyo, Japan) for injection at a precisely constant rate (1 μl/min for mice and 2.5 μl/min for rats).
# The following four subject groups were tested.
# The test apparatus consisted of two compartments, namely a dark compartment (depth 10 cm×width 15 cm×length 20 cm) and a light compartment (depth 20 cm×width 15 cm×length 20 cm). Specifically, the dark compartment was made using a black plastic material with a lid on top whereas the light compartment was made using a white plastic material with an open top. Both of the light and dark compartments were connected via a black plastic tunnel (depth 7 cm×width 10 cm×length 4.5 cm) that allows access to both compartments.
# The illumination of the test room was set to 150 lux. The test animals were habituated to an illumination of 10 lux in another room for more than 3 hours before starting the test (except upon administration). This test was conducted between 13:00 to 16:00. […]
# At the end of the test, the total time spent in the light compartment was calculated for each test animal, and the results were expressed as “average time+SEM” (see FIG. 1). […]
# [4] = tested on: WISTAR rats; experiment: elevated plus maze test, orexin-A (Example 1); assay type: in vivo; conditions: intracerebroventricular administration to rats, 0.1 to 3.0 nmol, 15 minutes before test; 5 min test
# Method: WISTAR rats (male, 300 to 400 g, Charles River, Japan) were used for the elevated plus maze test. Two […] were bred per cage.
# as §1, §2
# The following five subject groups were tested. […]
# At the end of the test, the total time spent in the open arms was calculated for each test animal, and the results were expressed as “average time+SEM” for each test subject (see FIG. 2). […]
# [5] = tested on: C57BL/6NCrj mice; experiment: elevated plus maze test, orexin-A (Example 2); assay type: in vivo; conditions: 1.0 nmol orexin-A, intracerebroventricular, vs aCSF administration group, p<0.05
# Method: C57BL/6NCrj mice (male, 25 to 30 g, Charles River, Japan) were used. Ten mice were bred per cage.
# as §1, with “7.4)” for “7. 4)”, “a solution” for “solutions”, “a predetermined concentration (1.0” for “various concentrations (0.1 nmol/μl, 0.3 nmol/μl, 1.0 nmol/μl, 3.0”
# A stainless-steel injection needle was used that can be inserted into the lateral ventricle at a point 0.5 mm deeper than the tip of the guide cannula for intracerebroventricular administration of the orexin-A solution. The amount of the orexin-A solution was 2 μl. A microsyringe (705N 50 μl, Hamilton, Nevada, USA) was connected to a reflux pump (CMA100, BAS Inc., Tokyo, Japan) for injection at a precisely constant rate (1 μl/min).
# The following two subject groups were tested.
# The elevated plus maze test was basically carried out according to the test procedure described in S. Pellow et al. (J. Neurosci. Methods, vol. 14 (1985), p-149-167). […]
# At the end of the test, the total time spent in the open arms was calculated for each test animal, and the results were expressed as “average time+SEM” for each test subject (see FIG. 3). […]
# [6] = tested on: mouse; conditions: intracerebroventricular administration to a mouse; cited from earlier work
compound,measurement,setting,value
"Cc1nc2ccc(NC(=O)Nc3ccnc4cccnc34)cc2o1 [SB-334867, 1-(2-methylbenzoxazole 6-yl)-3-[1,5]naphthyridine-4-yl urea]",time spent in the light compartment,"[1]; intracerebroventricular administration to mice, 1 nmol and 3 nmol, 15 minutes before test, 5 min test",lengthened time spent in the light compartment dosage-dependently
same,assessment result: action on anxiety,"[1]; light-dark exploration test, mice, intracerebroventricular",anxiogenic action
"orexin-B: neuropeptide, endogenous orexin receptor ligand comprising 28 amino acids",binding affinity of OX2R,[2],generally the same level
"orexin-A: neuropeptide, endogenous orexin receptor ligand; 33 amino acids with two disulfide bonds; from Peptide Institute Inc. (QPLPDCCRQKTCSCRLYELLHGAGNHAAGILTL; disulfide (positions not given here); ends not checked; also: two disulfide bonds, pairing not given here; UniProt O43612 34-66, looked up)","time spent in the light compartment, difference from the aCSF administration group",[3]; 0.1 nmol orexin-A administration group,significant difference
same,"time spent in the light compartment, difference from the aCSF administration group",[3]; 1.0 nmol orexin-A administration group,significant difference
same,time spent in the light compartment,"[3]; intracerebroventricular administration to mice 15 minutes before test, 5 min test, vs aCSF",significantly shortened
same,time spent in the open arms,[4],shortened volume-dependently
same,"time spent in the open arms (elevated plus maze test, FIG. 3)",[5],significantly shortened
same,"stress-like behaviors such as face washing, grooming, searching and burrowing",[6],increases

# From US7501395B2, “Method of screening for antianxiety drugs” (Eisai R & D Management Co., Ltd., priority 2005, dated 2009)
